Data from publication PMC11790763, “A Peptide Motif Covering Splice Site B in Neuroligin-1 Binds to Aβ and Acts as a Neprilysin Inhibitor” (Molecular Neurobiology, 2024).
Bridges are numbered along the chain shown (N, C = ends). Roman numbers before positions name the chains, in order. Where no end group is shown, it is not given here.

Legend:
[1] = target: T1, recombinant neprilysin (NEP) (Homo sapiens, UniProt P08473); experiment: Neprilysin activity assay with recombinant enzyme (SensoLyte 520); type: biochemical; details: four to five independent experiments; for activity of recombinant NEP: dose-dependent, NL1 0.1, 0.3, 1, 3 μM, neurolide 1, 5, 10, 100 μM, 5-FAM/QXL substrate, Ex/Em 485/535 nm, 2 h
T1 construct: purchased Anaspec, Fremont, California, USA (SensoLyte 520 Neprilysin Activity Assay Kit)
T1 sequence (P08473 whole entry): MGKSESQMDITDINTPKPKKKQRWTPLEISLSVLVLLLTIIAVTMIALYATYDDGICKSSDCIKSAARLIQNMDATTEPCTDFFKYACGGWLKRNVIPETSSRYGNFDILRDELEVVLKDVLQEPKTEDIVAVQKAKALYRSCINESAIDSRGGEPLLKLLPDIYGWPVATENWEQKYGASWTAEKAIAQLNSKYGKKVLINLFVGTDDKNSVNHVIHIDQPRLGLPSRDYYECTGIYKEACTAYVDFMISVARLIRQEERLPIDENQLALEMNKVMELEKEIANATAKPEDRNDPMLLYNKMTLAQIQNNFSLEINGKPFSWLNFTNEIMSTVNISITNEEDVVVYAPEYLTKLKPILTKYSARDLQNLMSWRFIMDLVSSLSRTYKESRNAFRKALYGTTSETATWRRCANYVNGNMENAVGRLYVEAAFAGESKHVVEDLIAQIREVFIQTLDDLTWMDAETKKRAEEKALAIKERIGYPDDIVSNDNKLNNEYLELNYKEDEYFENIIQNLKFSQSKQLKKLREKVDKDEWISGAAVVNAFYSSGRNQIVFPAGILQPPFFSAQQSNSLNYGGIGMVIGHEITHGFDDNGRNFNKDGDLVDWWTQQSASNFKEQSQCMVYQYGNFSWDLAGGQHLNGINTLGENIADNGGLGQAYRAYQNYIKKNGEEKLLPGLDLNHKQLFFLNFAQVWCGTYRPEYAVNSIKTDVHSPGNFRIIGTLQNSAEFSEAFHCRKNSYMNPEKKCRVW
Description: NEP activity was measured using the SensoLyte 520 Neprilysin Activity Assay Kit *Fluorimetric* (Anaspec, Fremont, California, USA) following the protocol provided by the manufacturer. Briefly, Aβ1-42 was dissolved in anhydrous DMSO to a stock concentration of 5 mM, followed by dilutions in assay buffer (100 μM, 50 μM, and 5 μM). Both NL1 (3 μM, 1 μM, 0.3 μM, 0.1 μM) and neurolide (100, 10, 5, and 1 μM) were dissolved in assay buffer. Randomly selected two additional NL1-derived peptides, NLp4, and NLp7 (5 μM, Table 1), were included in the analysis. The NEP solution (40 μl) was mixed with 10 μl of either NL1 or peptides and supplemented with 50 μl of NEP substrate (5-FAM/QXL), and the final mixture was incubated in black optical-bottom 96-well plate (Nunc, Rochester, New York, USA). In co-stimulation experiments, Aβ1-42, prepared as described above, was added to the solution in final concentrations either 0.5 μM or 5 μM. The fluorescence signal was recorded at Ex/Em = 485/535 nm every 20 min for 2 h. The data are presented as the relative activity of NEP alone.

[2] = Integrity after prolonged incubation under aggregation assay conditions (immunoblot); type: physicochemical; details: aggregation buffer 50 mM Tris pH 7.4, 37 °C, 8 days; His-tagged NL1 200 nM, biotinylated neurolide 6.7 μM; SDS-PAGE and Western blot versus fresh samples
Description: After 8-day incubation, they were subjected to conventional SDS polyacrylamide gel electrophoresis on a pre-casted gel (Any kD Mini-PROTEAN TGX gel, Bio-Rad) and transferred to a PVDF membranes (Millipore) together with freshly prepared samples of sNL1 and b-neurolide as corresponding positive controls. Subsequently, membranes were blocked in 5% (wt/vol) non-fat dry milk in PBST (PBS containing 0.05% [vol/vol] Tween-20). To detect sNL1, blots were probed overnight with a 6x-His tag monoclonal antibody (1:2000, Thermo Fisher Scientific) at 4 °C, followed by incubation for 1 h at room temperature with an anti-mouse horseradish peroxidase (HRP)-conjugated secondary antibody (1:10,000, Thermo Fisher Scientific). B-neurolide was detected by incubation for 1 h at room temperature with a streptavidin-HRP complex (1:5000, Dako). Chemiluminescent signal on the blot was developed by employing the SuperSignal ELISA Femto Substrate kit (Thermo Fisher Scientific) according to the manufacturer’s instructions, and images were acquired using an AlphaImager system (Alpha Innotech).
Supplementary file 12035_2024_4475_Fig8_ESM.png: Supplementary Fig. 3. […] NL1 (200 nM; R&D Systems) and biotinylated neurolide (6.7 μM; Schafer-N) were dissolved in the aggregation buffer, incubated at 37°C for 8 days, followed by conventional immunoblotting. […]

[3] = target: T2, Aβ1-42 (Homo sapiens, UniProt P05067); experiment: Aβ1-42 aggregation assay (thioflavin T fluorescence); details: 8 days, 50 mM Tris pH 7.4, ThT 5 μM, triplicates, slopes compared with Aβ alone
T2 construct: Aβ1-42, at a final concentration of 75 μM (pH 7.4); purchased Bachem AG (Bubendorf, Switzerland) or Schafer-N; host or cells: synthetic peptide
T2 sequence (P05067 672-713): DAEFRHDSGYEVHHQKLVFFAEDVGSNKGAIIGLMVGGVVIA
Description: Aβ1-42 was dissolved in sterile deionized water to a final concentration of 1 mM. Then, the peptide was subjected to a basic shock by adding 2 M NaOH to pH 12 followed by neutralization with 1 M HCl. Aβ1-42, at a final concentration of 75 μM (pH 7.4) either alone or in combination with NL1 (1 μM), neurolide (10 μM), or NLp7 (10 μM), was loaded in triplicates on 96-well plate. Immediately after mixing the samples, thioflavin T (5 μM, ThT; Sigma-Aldrich), dissolved in the aggregation buffer (50 mM Tris, pH 7.4), was added to wells and plate was incubated at 37 °C for 8 days. The formation of beta-amyloid aggregates was monitored first for 210 min and then every 24 h by recording changes in ThT fluorescence at excitation/emission (Ex/Em) = 440/482 nm.

Molecule	activity of recombinant NEP [1]	activity of recombinant NEP in the presence of Aβ1-42 ([1]; neurolide 10 μM with Aβ1-42 at 0.5 μM or 5 μM)	integrity after prolonged incubation [2]	development of ThT fluorescence (Aβ aggregation) ([3]; 75 μM Aβ1-42 + 10 μM peptide, 37 °C)	rise of ThT fluorescence (Aβ aggregation) ([3]; 75 μM Aβ1-42 + 1 μM sNL1, 37 °C, Ex/Em 440/482 nm)
I: SEGNRWSNSTKGLFQRAKK-NH2 / II: SEGNRWSNSTKGLFQRAK / III: SEGNRWSNSTKGLFQRA / IV: SEGNRWSNSTKGLFQRA (amide I:18-IV:C, I:19-II:C, II:18-III:C; C-terminus assumed) [neurolide]	significantly inhibited	significantly inhibited	remained intact	attenuate Aβ peptide aggregation	–
NL1: recombinant rat neuroligin-1, soluble ectodomain (R&D systems) (protein, UniProt Q62765 46-697, looked up, extracellular domain) extracellular domain: QKLDDVDPLVTTNFGKIRGIKKELNNEILGPVIQFLGVPYAAPPTGEHRFQPPEPPSPWSDIRNATQFAPVCPQNIIDGRLPEVMLPVWFTNNLDVVSSYVQDQSEDCLYLNIYVPTEDVKRISKECARKPGKKICRKGDIRDSGGPKPVMVYIHGGSYMEGTGNLYDGSVLASYGNVIVITVNYRLGVLGFLSTGDQAAKGNYGLLDLIQALRWTSENIGFFGGDPLRITVFGSGAGGSCVNLLTLSHYSEGNRWSNSTKGLFQRAIAQSGTALSSWAVSFQPAKYARILATKVGCNVSDTVELVECLQKKPYKELVDQDVQPARYHIAFGPVIDGDVIPDDPQILMEQGEFLNYDIMLGVNQGEGLKFVENIVDSDDGVSASDFDFAVSNFVDNLYGYPEGKDVLRETIKFMYTDWADRHNPETRRKTLLALFTDHQWVAPAVATADLHSNFGSPTYFYAFYHHCQTDQVPAWADAAHGDEVPYVLGIPMIGPTELFPCNFSKNDVMLSAVVMTYWTNFAKTGDPNQPVPQDTKFIHTKPNRFEEVAWTRYSQKDQLYLHIGLKPRVKEHYRANKVNLWLELVPHLHNLNDISQYTSTTTKVPSTDITLRPTRKNSTPVTSAFPTAKQDDPKQQPSPFSVDQRDYSTELS	significantly inhibited	–	remained intact	–	significantly decreased
